Data reported in patent publication US20250332170A1, “VANDETANIB REDUCES INFLAMMATORY CYTOKINES AND AMELIORATES COVID-19” (Collaborations Pharmaceuticals, Inc., priority 2021, published 2025).
Entries after “also recorded” stand apart in the source; their conditions may differ. Read-outs that look alike come from different tables or passages of the source.

Key:
[1] = test system: murine hepatitis virus (MHV); assay: microbe, parasite or virus in culture; format: cell-based
[2] = test system: SARS-CoV-2; assay: microbe, parasite or virus in culture; format: cell-based; details: Severe acute respiratory syndrome coronavirus 2, A549-ACE2
[3] = Cytotoxicity in Caco-2 cells (CC50); format: cell-based; details: human
[4] = test system: HCoV 229E; assay: HCoV 229E antiviral assay in Huh-7 cells; format: cell-based, human coronavirus 229E; details: 5 μM
[5] = test system: SARS-CoV-2; parameters: species or system K18-hACE2 mice; details: mouse, in vivo
[6] = in vivo; cited from earlier work
[7] = test system: SARS-CoV-2 (isolate USA WA1/2020)
[8] = test system: VEGF; details: by day 28, severe COVID-19; cited from earlier work
Sequence of VEGF (P15692 207-311 limits assumed): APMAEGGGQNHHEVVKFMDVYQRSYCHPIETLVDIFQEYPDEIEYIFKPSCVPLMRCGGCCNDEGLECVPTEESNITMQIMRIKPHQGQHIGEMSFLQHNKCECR

Question: Which inhibition at 10 µM ([1]; Murine coronavirus, DBT cells) does the source give for CN(C)C/C=C/C(=O)Nc1cc2c(Nc3ccc(F)c(Cl)c3)ncnc2cc1O[C@H]1CCOC1 [Afatinib] here?
Answer: 98%

Question: Which inhibition at 10 µM ([1]; Murine coronavirus, DBT cells) does the source give for CCc1cc2c(cc1N1CCC(N3CCOCC3)CC1)C(C)(C)c1[nH]c3cc(C#N)ccc3c1C2=O [Alectinib] here?
Answer: 62%

Question: Which inhibition at 10 µM ([1]; Murine coronavirus, DBT cells) does the source give for COc1cc(N2CCC(N3CCN(C)CC3)CC2)ccc1Nc1ncc(Cl)c(Nc2ccccc2P(C)(C)=O)n1 [Brigatinib] here?
Answer: 39%

Question: Which inhibition at 10 µM ([1]; Murine coronavirus, DBT cells) does the source give for COc1cc2nccc(Oc3ccc(NC(=O)C4(C(=O)Nc5ccc(F)cc5)CC4)cc3)c2cc1OC [Cabozantinib] here?
Answer: 61%

Question: With CCS(=O)(=O)N1CCN(c2ccc(Nc3ncc(C(N)=O)c(NC4CC4)n3)cc2)CC1 [Cerdulatinib] as the molecule, how does the inhibition at 10 µM ([1]; Murine coronavirus, DBT cells) read?
Answer: 78%

Question: With Cc1cc(Nc2ncc(Cl)c(Nc3ccccc3S(=O)(=O)C(C)C)n2)c(OC(C)C)cc1C1CCNCC1 [Ceritinib] as the molecule, how does the inhibition at 10 µM ([1]; Murine coronavirus, DBT cells) read?
Answer: 94%

Question: Which inhibition at 10 µM ([1]; Murine coronavirus, DBT cells) does the source give for O=C(c1ccc(F)c(F)c1Nc1ccc(I)cc1F)N1CC(O)([C@@H]2CCCCN2)C1 [Cobimetinib] here?
Answer: 82%

Question: Which inhibition at 10 µM ([1]; Murine coronavirus, DBT cells) does the source give for CC(C)(C)c1nc(-c2cccc(NS(=O)(=O)c3c(F)cccc3F)c2F)c(-c2ccnc(N)n2)s1 [Dabrafenib] here?
Answer: -12%

Question: Which inhibition at 10 µM ([1]; Murine coronavirus, DBT cells) does the source give for Cc1nc(Nc2ncc(C(=O)Nc3c(C)cccc3Cl)s2)cc(N2CCN(CCO)CC2)n1 [Dasatinib] here?
Answer: 65%

Question: Which inhibition at 10 µM ([1]; Murine coronavirus, DBT cells) does the source give for CNC(=O)c1ccc(Nc2ncc(C(F)(F)F)c(NCc3nccnc3N(C)S(C)(=O)=O)n2)cc1 [Defactinib] here?
Answer: 36%

Question: What does the source list for CN1CCN(c2ccc(C(=O)Nc3n[nH]c4ccc(Cc5cc(F)cc(F)c5)cc34)c(NC3CCOCC3)c2)CC1 [Entrectinib]?
Answer: inhibition at 10 µM ([1]; Murine coronavirus, DBT cells): 97%; IC50 [2]: 1970 nM; CC50 [3]: 3600 nM; Reduction of HCoV-229E titer [4]: 2.7 logTCID50/mL

Question: Which inhibition at 10 µM ([1]; Murine coronavirus, DBT cells) does the source give for C#Cc1cccc(Nc2ncnc3cc(OCCOC)c(OCCOC)cc23)c1 [Erlotinib] here?
Answer: 32%

Question: Which inhibition at 10 µM ([1]; Murine coronavirus, DBT cells) does the source give for CO[C@H]1C[C@@H]2CC[C@@H](C)[C@@](O)(O2)C(=O)C(=O)N2CCCC[C@H]2C(=O)O[C@H]([C@H](C)C[C@@H]2CC[C@@H](OCCO)[C@H](OC)C2)CC(=O)[C@H](C)/C=C(\C)[C@@H](O)[C@@H](OC)C(=O)[C@H](C)C[C@H](C)/C=C/C=C/C=C/1C [Everolimus] here?
Answer: 46%

Question: Which inhibition at 10 µM ([1]; Murine coronavirus, DBT cells) does the source give for Cc1ncc(NC(=O)c2ccc(CN3CCN(C)CC3)c(C(F)(F)F)c2)cc1Nc1nccc(-c2cccnc2)n1 [Flumatinib] here?
Answer: 83%

Question: For Cc1cccc(-c2nn3c(c2-c2ccnc4ccc(C(N)=O)cc24)CCC3)n1 [Galunisertib], which inhibition at 10 µM ([1]; Murine coronavirus, DBT cells) is on record?
Answer: 26%

Question: Which inhibition at 10 µM ([1]; Murine coronavirus, DBT cells) does the source give for C=CC(=O)N1CCC[C@@H](n2nc(-c3ccc(Oc4ccccc4)cc3)c3c(N)ncnc32)C1 [Ibrutinib] here?
Answer: -69%

Question: Which inhibition at 10 µM ([1]; Murine coronavirus, DBT cells) does the source give for CC[C@H](Nc1ncnc2nc[nH]c12)c1nc2cccc(F)c2c(=O)n1-c1ccccc1 [Idelalisib] here?
Answer: 17%

Question: Which inhibition at 10 µM ([1]; Murine coronavirus, DBT cells) does the source give for Cc1ccc(NC(=O)c2ccc(CN3CCN(C)CC3)cc2)cc1Nc1nccc(-c2cccnc2)n1 [Imatinib] here?
Answer: 81%

Question: Which inhibition at 10 µM ([1]; Murine coronavirus, DBT cells) does the source give for CS(=O)(=O)CCNCc1ccc(-c2ccc3ncnc(Nc4ccc(OCc5cccc(F)c5)c(Cl)c4)c3c2)o1 [Lapatinib] here?
Answer: 88%

Question: For C[C@]1(O)C[C@@H](c2nc(-c3ccc4ccc(-c5ccccc5)nc4c3)c3c(N)nccn32)C1 [Linsitinib], which inhibition at 10 µM ([1]; Murine coronavirus, DBT cells) is on record?
Answer: 46%

Question: For COc1cc2nccc(Oc3ccc(NC(=O)NC4CC4)c(Cl)c3)c2cc1C(N)=O [Lonvatinib], which inhibition at 10 µM ([1]; Murine coronavirus, DBT cells) is on record?
Answer: -12%

Question: With Cc1cn(-c2cc(NC(=O)c3ccc(C)c(Nc4nccc(-c5cccnc5)n4)c3)cc(C(F)(F)F)c2)cn1 [Nilotinib] as the molecule, how does the inhibition at 10 µM ([1]; Murine coronavirus, DBT cells) read?
Answer: 66%

Question: Which inhibition at 10 µM ([1]; Murine coronavirus, DBT cells) does the source give for COC(=O)c1ccc2c(c1)NC(=O)/C2=C(\Nc1ccc(N(C)C(=O)CN2CCN(C)CC2)cc1)c1ccccc1 [Nintedanib] here?
Answer: 95%

Question: With C=CC(=O)Nc1cc(Nc2nccc(-c3cn(C)c4ccccc34)n2)c(OC)cc1N(C)CCN(C)C [Osimertinib] as the molecule, how does the inhibition at 10 µM ([1]; Murine coronavirus, DBT cells) read?
Answer: 98%

Question: With CC(=O)c1c(C)c2cnc(Nc3ccc(N4CCNCC4)cn3)nc2n(C2CCCC2)c1=O [Palbociclib] as the molecule, how does the inhibition at 10 µM ([1]; Murine coronavirus, DBT cells) read?
Answer: 5%

Question: With Cc1ccc(Nc2nccc(N(C)c3ccc4c(C)n(C)nc4c3)n2)cc1S(N)(=O)=O [Pazopanib] as the molecule, how does the inhibition at 10 µM ([1]; Murine coronavirus, DBT cells) read?
Answer: 20%

Question: Which inhibition at 10 µM ([1]; Murine coronavirus, DBT cells) does the source give for Cc1ccc(C(=O)Nc2ccc(CN3CCN(C)CC3)c(C(F)(F)F)c2)cc1C#Cc1cnc2cccnn12 [Ponatinib] here?
Answer: 98%

Question: With CNC(=O)c1cc(Oc2ccc(NC(=O)Nc3ccc(Cl)c(C(F)(F)F)c3)c(F)c2)ccn1 [Regorafenib] as the molecule, how does the inhibition at 10 µM ([1]; Murine coronavirus, DBT cells) read?
Answer: 65%

Question: Which inhibition at 10 µM ([1]; Murine coronavirus, DBT cells) does the source give for CN(C)C(=O)c1cc2cnc(Nc3ccc(N4CCNCC4)cn3)nc2n1C1CCCC1 [Ribociclib] here?
Answer: -4%

Question: With CNCc1ccc(-c2[nH]c3cc(F)cc4c3c2CCNC4=O)cc1 [Rucaparib] as the molecule, how does the inhibition at 10 µM ([1]; Murine coronavirus, DBT cells) read?
Answer: -48%

Question: Which inhibition at 10 µM ([1]; Murine coronavirus, DBT cells) does the source give for N#CC[C@H](C1CCCC1)n1cc(-c2ncnc3[nH]ccc23)cn1 [Ruxolitinib] here?
Answer: -46%

Question: Which inhibition at 10 µM ([1]; Murine coronavirus, DBT cells) does the source give for CNC(=O)c1cc(Oc2ccc(NC(=O)Nc3ccc(Cl)c(C(F)(F)F)c3)cc2)ccn1 [Sorafenib] here?
Answer: 74%

Question: Which inhibition at 10 µM ([1]; Murine coronavirus, DBT cells) does the source give for CCN(CC)CCNC(=O)c1c(C)[nH]c(/C=C2\C(=O)Nc3ccc(F)cc32)c1C [Sunitinib] here?
Answer: 96%

Question: Which inhibition at 10 µM ([1]; Murine coronavirus, DBT cells) does the source give for CO[C@H]1C[C@@H]2CC[C@@H](C)[C@@](O)(O2)C(=O)C(=O)N2CCCC[C@H]2C(=O)O[C@H]([C@H](C)C[C@@H]2CC[C@@H](OC(=O)C(C)(CO)CO)[C@H](OC)C2)CC(=O)[C@H](C)/C=C(\C)[C@@H](O)[C@@H](OC)C(=O)[C@H](C)C[C@H](C)/C=C/C=C/C=C/1C [Temsirolimus] here?
Answer: 4%

Question: For COc1cc2nccc(Oc3ccc(NC(=O)Nc4cc(C)on4)c(Cl)c3)c2cc1OC [Tivozanib], which inhibition at 10 µM ([1]; Murine coronavirus, DBT cells) is on record?
Answer: 29%

Question: With C[C@@H]1CCN(C(=O)CC#N)C[C@@H]1N(C)c1ncnc2[nH]ccc12 [Tofacitinib] as the molecule, how does the inhibition at 10 µM ([1]; Murine coronavirus, DBT cells) read?
Answer: -7%

Question: With CC(=O)Nc1cccc(-n2c(=O)n(C3CC3)c(=O)c3c(Nc4ccc(I)cc4F)n(C)c(=O)c(C)c32)c1 [Trametinib] as the molecule, how does the inhibition at 10 µM ([1]; Murine coronavirus, DBT cells) read?
Answer: -40%

Question: Which inhibition at 10 µM ([1]; Murine coronavirus, DBT cells) does the source give for COc1cc2c(Nc3ccc(Br)cc3F)ncnc2cc1OCC1CCN(C)CC1 [Vandetanib] here?
Answer: 97%

Question: What about the IC50 ([1]; Murine coronavirus, DBT cells, FIG. 5, read-out: IC50 against MHV) of the same molecule?
Answer: 1600 nM

Question: What about the IC50 [2] of the same molecule?
Answer: 790 nM

Question: And the CC50 [3]?
Answer: 4100 nM

Question: What about the “Reduction of HCoV-229E titer” value [4] of the same molecule?
Answer: > 3

Question: And the “Lung CCL2 level” value [5]?
Answer: significantly reduced; also recorded: decreased

Question: What about the “Lung CCL3 level” value [5] of the same molecule?
Answer: significantly reduced; also recorded: decreased

Question: And the “Lung CCL4 level” value [5]?
Answer: reduced; also recorded: decreased

Question: What about the “Lung IL-6 level” value [5] of the same molecule?
Answer: statistically significantly reduced

Question: And the “Lung IL-10 level” value [5]?
Answer: statistically significantly reduced

Question: What about the “Lung TNF-α level” value [5] of the same molecule?
Answer: statistically significantly reduced

Question: What about the “Lung pathology / inflammatory cell infiltrates” value [5] of the same molecule?
Answer: mitigated inflammatory cell infiltrates

Question: What about the “Lung viral load (viral RNA, RT-PCR)” value [5] of the same molecule?
Answer: did not reduce

Question: And the “Lung IFN-1β level” value ([5]; listed as vandetanib)?
Answer: restored the levels; also recorded: rescued

Question: What about the “Lung IL-6 level” value ([5]; listed as vandetanib) of the same molecule?
Answer: reduces

Question: And the “Lung IL-10 level” value ([5]; listed as vandetanib)?
Answer: reduces

Question: What about the “Lung TNF-α level” value ([5]; listed as vandetanib) of the same molecule?
Answer: reduces

Question: What about the “Lung pathology / inflammatory cell infiltrates” value ([5]; listed as vandetanib) of the same molecule?
Answer: clear protective effect; also recorded: significant treatment effect with mild infiltration

Question: And the “Lung viral load (viral RNA, RT-PCR)” value ([5]; listed as vandetanib)?
Answer: no significant reduction; also recorded: not observed

Question: And the “Absorption from the gut” value [6]?
Answer: well absorbed

Question: What about the Average half-life [6] of the same molecule?
Answer: 19 days

Question: And the “Excreted via the feces” value [6]?
Answer: 44%

Question: And the “Excreted via the urine” value [6]?
Answer: 25%

Question: And the Protein-bound [6]?
Answer: 92-94%

Question: What about the Terminal excretion half-life [6] of the same molecule?
Answer: 20 days

Question: What about the “Time to peak blood plasma concentrations” value [6] of the same molecule?
Answer: 4 to 10 h

Question: Which inhibition at 10 µM ([1]; Murine coronavirus, DBT cells) does the source give for CCCS(=O)(=O)Nc1ccc(F)c(C(=O)c2c[nH]c3ncc(-c4ccc(Cl)cc4)cc23)c1F [Vemourafenib] here?
Answer: -3%

Question: For CCC(CC)COC(=O)[C@H](C)N[P@](=O)(OC[C@H]1O[C@@](C#N)(c2ccc3c(N)ncnn23)[C@H](O)[C@@H]1O)Oc1ccccc1 [remdesivir], which IC50 [2] is on record?
Answer: 110 nM

Question: Which “% Inhibition MHV-DBT cells 10 μM” value [1] does the source give for Alisertib here?
Answer: 19%

Question: With Crizotinib as the molecule, how does the “% Inhibition MHV-DBT cells 10 μM” value [1] read?
Answer: 96%

Question: What about the “Calu-3 result (toxicity)” value [7] of the same molecule?
Answer: toxic

Question: What does the source list for bevacizumab?
Answer: Patients discharged [8]: 65%; Patients with improvement in oxygen-support status [8]: 92%; Patients with worsened oxygen-support status or died [8]: none
